From publication PMC8428568, “Discovery of re-purposed drugs that slow SARS-CoV-2 replication in human cells” (PLoS Pathogens, 2021)
Structures can show the parent of a compound that is named as a salt. Where two headings read alike, the source gives them in different places.

What was measured:
[1] = system: SARS-CoV-2-ΔOrf7a-NLuc virus; test: Post-infection treatment: Vero cells infected 24 hrs with SARS-CoV-2-ΔOrf7a-NLuc, then compound for 48 hrs, bioluminescence; type: cell-based; conditions: change in replication relative to DMSO; cells infected 24 hrs, then treated 48 hrs
recombinant NLuc = type: biochemical
[2] = system: SARS-CoV-2-ΔOrf7a-NLuc virus; test: microbe, parasite or virus in culture; type: cell-based; conditions: for activity at 10 µM: Severe acute respiratory syndrome coronavirus 2, Vero, 72 h, read-out: Mean relative luminescence (n=4); for IC50: Severe acute respiratory syndrome coronavirus 2, Vero cells
[3] = system: SARS-CoV-2-ΔOrf7a-NLuc virus; test: microbe, parasite or virus in culture; type: cell-based; conditions: for IC50: read-out: HUH7 IC50
[4] = recombinant NLuc activity relative to DMSO
[5] = recombinant NLuc, first read column
[6] = recombinant NLuc, fourth read column
[7] = recombinant NLuc, third read column
[8] = Vero cells, 10 μM, 1 = DMSO-treated infected cells
[9] = […], 1 = untreated, 0 = total inhibition
[10] = Vero screen, […], relative luminescence
[11] = HUH7 screen, […], relative luminescence
[12] = Severe acute respiratory syndrome coronavirus 2, Huh-7

| Compound | PrestoBlue relative viability (HUH7 cells; HUH7 screen) | Post-infection at IC50 [1] | Relative Recombinant NLUC (recombinant NLuc; [4]) | Reads Counts per second (read 1) (recombinant NLuc; [5]) | Reads Counts per second (read 4) (recombinant NLuc; [6]) | Reads Counts per second (read 2) (recombinant NLuc; recombinant NLuc) | Reads Counts per second (read 3) (recombinant NLuc; [7]) | PrestoBlue relative viability (Vero cells; [8]) | PrestoBlue relative viability (Vero cells; Vero screen) | % activity in Vero 100PFU screen [2] | activity at 10 µM [2, 9] | IC50 [2] | Mean relative luminescence (n=4) [2, 10] | Mean relative luminescence (n=4) [3, 11] | IC50 [3, 12] | other results |
| --- | --- | --- | --- | --- | --- | --- | --- | --- | --- | --- | --- | --- | --- | --- | --- | --- |
| CCN(CC)Cc1cc(Nc2ccnc3cc(Cl)ccc23)ccc1O [Amodiaquine, Amodiaquine dihydrochloride dihydrate] | 0.7783 | -25% | 0.9146 | 351271 Counts per second | 339282 Counts per second | 347518 Counts per second | 344113 Counts per second | 0.6404 | 0.6404 | 12% | 10.1% | 5 µM | 0.1007 | 0.01258 | 1000 nM | – |
| O=C1C(O)=C([C@H]2CC[C@H](c3ccc(Cl)cc3)CC2)C(=O)c2ccccc21 [Atovaquone] | 1.15 | -25% | 0.5902 | 224278 Counts per second | 216287 Counts per second | 226697 Counts per second | 224646 Counts per second | 1.55 | 1.55 | 4% | 0.959% | 3 µM | 0.009591 | 0.05824 | 7500 nM | – |
| COc1nc2ccc(Br)cc2cc1[C@@H](c1ccccc1)[C@@](O)(CCN(C)C)c1cccc2ccccc12 [Bedaquiline] | – | -30% | 0.9285 | 348601 Counts per second | 351646 Counts per second | 355872 Counts per second | 347079 Counts per second | 0.8784 | – | 3.54% | 1.02% | 10 µM | – | – | 5000 nM | – |
| CCN1CCN(Cc2ccc(Nc3ncc(F)c(-c4cc(F)c5nc(C)n(C(C)C)c5c4)n3)nc2)CC1 [LY2835219] | 0.6043 | -40% | 0.9189 | 345999 Counts per second | 348685 Counts per second | – | 345910 Counts per second | 0.5512 | 0.5512 | 3.32% | 2.68% | 1 µM | 0.02684 | 0.07242 | 200 nM | – |
| COC(=O)C1=C(C)NC(C)=C(C(=O)OCCN2CCN(C(c3ccccc3)c3ccccc3)CC2)C1c1cccc([N+](=O)[O-])c1.Cl.Cl (centres unmarked) [Manidipine 2HCl] | 0.5726 | -50% | 0.6382 | 242466 Counts per second | 239469 Counts per second | – | 242968 Counts per second | 0.813 | 0.813 | 12% | – | – | 0.1096 | 0.04447 | – | Mean relative luminescence (n=4) [2, 9]: 0.1096; IC50 [3]: 2500 nM |
| Clc1ccc(C(Cn2ccnc2)OCc2ccsc2Cl)c(Cl)c1 (centres unmarked) [Tioconazole] | – | – | – | – | – | – | – | – | – | 10% | – | – | – | – | – | PrestoBlue relative viability (HUH7 cells; human): 1.129; Reads Counts per second (read 1) (recombinant NLuc): 349867 Counts per second; Reads Counts per second (read 3) (recombinant NLuc): 345556 Counts per second; Reads Counts per second (read 4) (recombinant NLuc): 349383 Counts per second; Relative Recombinant NLUC (recombinant NLuc): 0.9221; PrestoBlue relative viability (Vero cells; African green monkey): 1.172; activity at 10 µM [2]: 7.16%; Mean relative luminescence (n=4) [3]: 0.1247 |
